According to US20210238173A1, “MITOGEN-ACTIVATED PROTEIN KINASE KINASE 7 INHIBITORS” (Yeda Research and Development Co. Ltd., priority 2018, published 2021):

What was measured:
p-cJun in HEK293 cells = experiment: p-cJun inhibition in HEK293 cells; type: cell-based; settings: Homo sapiens
Description: (§1) HEK293, Beas2B and 3T3 cells were plated 24 hours before procedure on 384 well clear bottom black flat plates (Corning) pre-coated with Fibronectin (Sigma) diluted in PBS to a concentration of 5 μg/ml 45 minutes prior to cells introduction. Cells were plated using Multidrop™ Combi reagent dispenser (Thermo Fisher Scientific). Compound, reagents and antibody dispensing as well as washes were performed with a CyBio liquid handler (Analytik). Cells were pre-incubated with a small molecule or up to 1% DMSO for 2 h before fixation. HEK293, 3T3 or Beas2B cells were treated with 0.6M/0.2M/0.2M D-Sorbitol/PBS (Sigma) for 20/40/40 min. respectively, before fixation. Media was removed and wells were immediately fixed with 150 μl per well of 3.7% formaldehyde/PBS fixing solution for 20 min. Formaldehyde was then aspired and cells were permeabilized with 150 μl of 0.5% Triton x-100/PBS solution for 10 min. After aspiration cells were washed with ice-cold methanol and stored at −20° C., for 10 min. Methanol was aspired and cells were blocked with 150 μl blocking buffer (LICOR) for 90 min. Primary antibody Phospho-SAPK/JNK T183/Y185 (CST; 9251S) was diluted 1:1000 in blocking buffer and was applied 50 μl per well, except control wells to which only blocking buffer was applied, O.N. (16 h) at 4° C. with mild shaking. […] Wells signals were analyzed with Odyssey software. […]
(§2) To rapidly assess the cellular activity (EC50) with full dose response curves of the MKK7 covalent inhibitors, according to some embodiments of the present invention, an in-cell western assay was adapted to a 384 well plate format over traditional western blot, and monitored phospho-JNK (pJNK) levels in response to osmotic shock. […] The compound's activity was assessed by pre-treating cells with either compound or DMSO for 2 hours, followed by Sorbitol stimulation. The response of pJNK, and its substrates, pc-Jun and pATF2, was measured, as well as pP38, which is a substrate of MKK4 but not MKK7, and pERK in HEK293 cells, and the results are presented in Table 5 below.

pJNK in HEK293 cells = experiment: In-cell western (ICW) pJNK inhibition in HEK293; type: cell-based; settings: 2 h pre-incubation, sorbitol stimulation
Description: (§3) HEK293, Beas2B and 3T3 cells were plated 24 hours before procedure on 384 well clear bottom black flat plates (Corning) pre-coated with Fibronectin (Sigma) diluted in PBS to a concentration of 5 μg/ml 45 minutes prior to cells introduction. Cells were plated using Multidrop™ Combi reagent dispenser (Thermo Fisher Scientific). Compound, reagents and antibody dispensing as well as washes were performed with a CyBio liquid handler (Analytik). Cells were pre-incubated with a small molecule or up to 1% DMSO for 2 h before fixation. HEK293, 3T3 or Beas2B cells were treated with 0.6M/0.2M/0.2M D-Sorbitol/PBS (Sigma) for 20/40/40 min. respectively, before fixation. Media was removed and wells were immediately fixed with 150 μl per well of 3.7% formaldehyde/PBS fixing solution for 20 min. Formaldehyde was then aspired and cells were permeabilized with 150 μl of 0.5% Triton x-100/PBS solution for 10 min. After aspiration cells were washed with ice-cold methanol and stored at −20° C., for 10 min. Methanol was aspired and cells were blocked with 150 μl blocking buffer (LICOR) for 90 min. Primary antibody Phospho-SAPK/JNK T183/Y185 (CST; 9251S) was diluted 1:1000 in blocking buffer and was applied 50 μl per well, except control wells to which only blocking buffer was applied, O.N. (16 h) at 4° C. with mild shaking. Primary antibody was aspired, wells were washed with 150 μl 0.1% Tween20/PBS (Sigma) washing solution three times for 7 min. IRDye® 800CW Goat anti-Rabbit IgG Secondary antibody (LICOR) was then diluted 1:1200 in blocking buffer with 50 μl applied per well on control wells only (no CellTag control), then CellTag700 (1:2000) was added to the solution and 50 μl were added to all experiment wells, for 1 h at room temperature. Wells were aspired and washed again with 150 μl 0.1% Tween20/PBS (Sigma) washing solution three times for 7 min. plate was dried and scanned with Odyssey CLx imaging system at 700 nm and 800 nm (Licor). Wells signals were analyzed with Odyssey software. The signal was normalized by the CellTag700 signal.
(§4) To rapidly assess the cellular activity (EC50) with full dose response curves of the MKK7 covalent inhibitors, according to some embodiments of the present invention, an in-cell western assay was adapted to a 384 well plate format over traditional western blot, and monitored phospho-JNK (pJNK) levels in response to osmotic shock. We first characterized the dynamics of pJNK in response to sorbitol. Sufficient dynamic range for pJNK is achieved at 20 minutes in HEK293 cells and at 40 minutes in 3T3 and Beas2B cells. The compound's activity was assessed by pre-treating cells with either compound or DMSO for 2 hours, followed by Sorbitol stimulation. The response of pJNK, and its substrates, pc-Jun and pATF2, was measured, as well as pP38, which is a substrate of MKK4 but not MKK7, and pERK in HEK293 cells, and the results are presented in Table 5 below.

MKK4 = biological target: T1, MKK4 (Homo sapiens, UniProt P45985); experiment: In vitro activity assay for MKK4 (Nanosyn); type: biochemical
T1 construct: purchased Nanosyn (contract assay)
T1 sequence (P45985 1-399): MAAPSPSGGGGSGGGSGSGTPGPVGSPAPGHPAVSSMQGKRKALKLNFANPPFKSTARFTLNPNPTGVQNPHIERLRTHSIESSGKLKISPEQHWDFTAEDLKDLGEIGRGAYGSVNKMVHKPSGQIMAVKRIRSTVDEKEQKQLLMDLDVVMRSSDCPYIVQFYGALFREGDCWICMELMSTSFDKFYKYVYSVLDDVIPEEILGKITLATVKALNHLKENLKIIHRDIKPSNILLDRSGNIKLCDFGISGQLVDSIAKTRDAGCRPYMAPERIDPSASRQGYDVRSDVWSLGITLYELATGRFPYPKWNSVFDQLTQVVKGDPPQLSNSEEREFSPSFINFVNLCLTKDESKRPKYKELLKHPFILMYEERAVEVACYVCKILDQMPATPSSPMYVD
Description: (§5) In Vitro Activity Assays for MKK7 or MKK4 (Carried by Nanosyn):
(§6) Exemplary test compounds, according to some embodiments of the present invention, were diluted in DMSO to a final concentration that ranged from 10 μM to 0.0565 nM, while final concentration of DMSO in all assays was kept at 1%. Reference compound, Staurosporine, was tested in a similar manner. […] After incubation, activity of now activated JNK1 was tested in the presence of 30 μM ATP ATP for 17 h (MKK7) or 4 h (MKK4).

MKK7 = biological target: T2, MKK7 (Homo sapiens, UniProt O14733); experiment: In vitro kinase activity assay for MKK7 (Nanosyn); type: biochemical; settings: read-out: MKK7 IC50 in vitro
T2 construct: purchased Nanosyn (contract assay)
T2 sequence (O14733 1-419): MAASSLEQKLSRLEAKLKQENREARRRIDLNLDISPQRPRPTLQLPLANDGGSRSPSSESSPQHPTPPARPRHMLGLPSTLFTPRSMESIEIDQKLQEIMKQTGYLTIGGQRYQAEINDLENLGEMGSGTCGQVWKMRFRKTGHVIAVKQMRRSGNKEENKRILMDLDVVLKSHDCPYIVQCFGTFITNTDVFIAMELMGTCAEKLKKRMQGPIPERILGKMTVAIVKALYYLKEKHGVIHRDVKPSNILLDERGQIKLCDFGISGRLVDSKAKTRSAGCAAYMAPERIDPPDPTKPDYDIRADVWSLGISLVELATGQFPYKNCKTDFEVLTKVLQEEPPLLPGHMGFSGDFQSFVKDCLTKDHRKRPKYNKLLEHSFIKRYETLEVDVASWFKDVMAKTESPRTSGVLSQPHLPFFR
Description: Based on visual inspection of the top 500 predictions, 10 compounds were selected for synthesis and testing (see, Table 1). The “Docking rank” is given in its respective run, whereas four virtual libraries of acrylamides were docked separately, based on the amine precursor for the acrylamide (primary or secondary aliphatic amines, primary or secondary aromatic amines). In vitro kinase activity assay was carried out by Nanosyn, as described below.
as §5, §6

pJNK in 3T3 WT cells = experiment: In-cell western (ICW) pJNK inhibition in 3T3 WT; type: cell-based; settings: 3T3 WT, sorbitol stimulation; for EC50: ICW, 2 h pre-incubation
Description: as §3, §4
Wildtype 3T3 cells, 3T3 MKK7 double knock-out (MKK7^−/−) cells and MKK4/7 double knockouts (MKK4/7^−/−) were used to validate on target activity of the MKK7 covalent inhibitors presented herein.

pERK in HEK293 cells = experiment: pERK response in HEK293 cells; type: cell-based; settings: at 10 μM
Description: as §4
(§7) With similar values for pcJun (2.26 μM and 1.67 μM, respectively) and pATF2 (2.79 μM 5.19 μM, respectively).

pATF2 in HEK293 cells = experiment: pATF2 inhibition in HEK293 cells; type: cell-based; settings: Homo sapiens
Description: as §1, §2

pP38 in HEK293 cells = experiment: pP38 response in HEK293 cells; type: cell-based; settings: at 10 μM
Description: as §4, §7

[1] = Metabolic stability in dog liver microsomes; type: in vitro ADME; settings: for half-life: dog, liver microsomes
Text: (§8) A reference compound, REF1250, was used in this study: […]

[2] = Metabolic stability in human liver microsomes; type: in vitro ADME; settings: for half-life: human, liver microsomes
Text: as §8

[3] = Metabolic stability in monkey liver microsomes; type: in vitro ADME
Text: as §8

[4] = Metabolic stability in rat liver microsomes; type: in vitro ADME; settings: for half-life: rat, liver microsomes
Text: as §8

[5] = Metabolic stability in mouse liver microsomes; type: in vitro ADME; settings: for half-life: mouse, liver microsomes
Text: as §8

primary mouse B-cells = experiment: Primary B-cell activation (CD86+ FACS) in response to LPS; type: cell-based; settings: 10 μM, 2 hours pre-incubation
Text: Compounds Block Activation of Primary Mouse B-Cells:
JNK is known to mediate activation of B-cells in response to lypopolysacharide (LPS) through the TLR4 signaling pathway as well as in response to B-cell receptor activation (stimulated e.g. with an anti-IgM antibody). Primary B-cells were isolated from the spleen of mice and assessed for their B-cell activation, via FACS analysis of CD86+ expression, in response to LPS in the presence or absence of the covalent MKK7 enzyme inhibitors presented herein, as well as a positive control JNK inhibitor, JNK-IN-8.
At 10 μM and 2 hours pre-incubation before stimulation, GO80 was able to inhibit 60% of the CD86+ response.

[6] = Homo sapiens, HEK293, HEK293, ICW

Compound | IC50 (MKK4) [nM] | IC50 (MKK7) [nM] | % remaining @ 40 min [1] [%] | half-life [1] [min] | % remaining @ 40 min [2] [%] | half-life [2] [min] | % remaining @ 40 min [3] [%] | half-life [3] [min] | % remaining @ 40 min [4] [%] | half-life [4] [min] | % remaining @ 40 min [5] [%] | half-life [5] [min] | EC50 (pJNK in HEK293 cells; [6]) [nM] | EC50 (pJNK in 3T3 WT cells) [nM] | EC50 (pJNK in HEK293 cells; HEK293, ICW) [nM] | inhibition of the CD86+ response (primary mouse B-cells) [%] | further results
C=CC(=O)Nc1cccc(-c2n[nH]c3cc([N+](=O)[O-])ccc23)c1 [GO37] | > 10000 | 14 |  |  |  |  |  |  |  |  |  |  | 730 | 4200 |  |  | EC50 (p-cJun in HEK293 cells): 2520 nM; IC50 (pJNK in 3T3 WT cells): 5330 nM; effect on pERK levels (pERK in HEK293 cells): did not affect; EC50 (pATF2 in HEK293 cells): 3710 nM; effect on pP38 levels (pP38 in HEK293 cells): did not affect
Cc1cc(NC(=O)c2cccc(NC(=O)/C=C/CN(C)C)c2)ccc1Nc1nccc(-c2cccnc2)n1 [JNK-IN-8, reference compound] |  |  |  |  |  |  |  |  |  |  |  |  |  |  |  | ~90 | 
C=CC(=O)Nc1cc(-c2n[nH]c3ccccc23)ccn1 [PCM475] |  |  | 5 |  | 0 |  | 18 |  | 22 |  | 0 |  |  | 300 | 900 | ~90 | Halflife [1]: 9 min; Halflife [2]: <5 min; Halflife [3]: 16 min; Halflife [4]: 18 min; Halflife [5]: <5 min

Further lines, with some results ahead:

IC50 (MKK4) [nM] | IC50 (MKK7) [nM] | % remaining @ 40 min [1] [%] | half-life [1] [min] | % remaining @ 40 min [2] [%] | half-life [2] [min] | % remaining @ 40 min [3] [%] | half-life [3] [min] | % remaining @ 40 min [4] [%] | half-life [4] [min] | % remaining @ 40 min [5] [%] | half-life [5] [min] | Compound | EC50 (pJNK in HEK293 cells; [6]) [nM] | EC50 (pJNK in 3T3 WT cells) [nM] | EC50 (pJNK in HEK293 cells; HEK293, ICW) [nM] | inhibition of the CD86+ response (primary mouse B-cells) [%] | further results
> 10000 | 10 | 0 | < 5 | 0 | < 5 | 0 | < 5 | 2 | 6 | 0 | < 5 | C=CC(=O)Nc1cccc(-c2n[nH]c3cc(Br)ccc23)c1 [GO98] |  |  |  |  | 
> 10000 | 2 | 0 | < 5 | 0 | < 5 | 0 | < 5 | 6 | 10 | 0 | < 5 | C=CC(=O)Nc1cc(C#N)cc(-c2n[nH]c3cc(C)ccc23)c1 [GO108] | 3700 |  | 2300 |  | 
